Results published in ChEMBL document CHEMBL1201862, “PubChem BioAssay data set” (2004).
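Five compound concentrations were applied to cells in 96-well plates for 48 hours; endpoints were derived by simple linear interpolation of the resulting dose-response curve. At the GI50, growth is halved.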 Active and inactive are the calls of the source. Cut-off read from the data, not from the text of the source: active = GI50 up to about 1.1 µM and inactive = higher.

Experiments:
Experiment in all cases: NCI-60 cell line screen, 48 h
EKVX = tested on: EKVX
MOLT-4 = tested on: MOLT-4
SF-268 = tested on: SF-268
ACHN = tested on: ACHN
Hs-578T = tested on: Hs-578T
KM12 = tested on: KM12
RXF 393 = tested on: RXF 393
DU-145 = tested on: DU-145
SK-MEL-2 = tested on: SK-MEL-2
OVCAR-3 = tested on: OVCAR-3
MDA-N = tested on: MDA-N
SNB-19 = tested on: SNB-19
SW-620 = tested on: SW-620
M14 = tested on: M14
HCT-116 = tested on: HCT-116
HOP-62 = tested on: HOP-62
T47D = tested on: T47D
OVCAR-8 = tested on: OVCAR-8
SK-MEL-28 = tested on: SK-MEL-28
NCI/ADR-RES = tested on: NCI/ADR-RES
NCI-H522 = tested on: NCI-H522
Malme-3M = tested on: Malme-3M
TK-10 = tested on: TK-10
PC-3 = tested on: PC-3
HCT-15 = tested on: HCT-15
IGROV-1 = tested on: IGROV-1
K562 = tested on: K562
SN12C = tested on: SN12C
786-0 = tested on: 786-0
MDA-MB-231 = tested on: MDA-MB-231
BT-549 = tested on: BT-549
UO-31 = tested on: UO-31
NCI-H460 = tested on: NCI-H460
A549 = tested on: A549
A498 = tested on: A498
NCI-H226 = tested on: NCI-H226
MDA-MB-435 = tested on: MDA-MB-435
HT-29 = tested on: HT-29
SK-OV-3 = tested on: SK-OV-3
U-251 = tested on: U-251
UACC-257 = tested on: UACC-257
SNB-75 = tested on: SNB-75
OVCAR-5 = tested on: OVCAR-5
OVCAR-4 = tested on: OVCAR-4
RPMI-8226 = tested on: RPMI-8226
MCF7 = tested on: MCF7
CAKI-1 = tested on: CAKI-1
LOX IMVI = tested on: LOX IMVI
SR = tested on: SR
CCRF-CEM = tested on: CCRF-CEM
UACC-62 = tested on: UACC-62
SK-MEL-5 = tested on: SK-MEL-5
HCC 2998 = tested on: HCC 2998
COLO 205 = tested on: COLO 205
SF-295 = tested on: SF-295
HOP-92 = tested on: HOP-92
NCI-H23 = tested on: NCI-H23

For `CCOC(=O)CNC1=Nc2ccccc2C(=O)N2CSCC12` (stereo not given), the GI50 (EKVX) was > 100 µM (inactive), the GI50 (MOLT-4) was > 100 µM (inactive) and the GI50 (SF-268) was > 100 µM (inactive). For the same compound, the GI50 (ACHN) was > 100 µM (inactive), the GI50 (Hs-578T) was > 100 µM (inactive) and the GI50 (KM12) was > 100 µM (inactive). For the same compound, the GI50 (RXF 393) was > 100 µM (inactive), the GI50 (DU-145) was > 100 µM (inactive) and the GI50 (SK-MEL-2) was > 100 µM (inactive). The GI50 (OVCAR-3) was > 100 µM (inactive), the GI50 (MDA-N) was > 100 µM (inactive) and the GI50 (SNB-19) was > 100 µM (inactive). The GI50 (SW-620) was > 100 µM (inactive), the GI50 (M14) was > 100 µM (inactive) and the GI50 (HCT-116) was > 100 µM (inactive). For the same compound, the GI50 (HOP-62) was > 100 µM (inactive), the GI50 (T47D) was > 100 µM (inactive) and the GI50 (OVCAR-8) was > 100 µM (inactive). For the same compound, the GI50 (SK-MEL-28) was > 100 µM (inactive), the GI50 (NCI/ADR-RES) was > 100 µM (inactive) and the GI50 (NCI-H522) was > 100 µM (inactive). The GI50 (Malme-3M) was > 100 µM (inactive), the GI50 (TK-10) was > 100 µM (inactive) and the GI50 (PC-3) was > 100 µM (inactive). For the same compound, the GI50 (HCT-15) was > 100 µM, the GI50 (IGROV-1) was > 100 µM (inactive) and the GI50 (K562) was > 100 µM (inactive). For the same compound, the GI50 (SN12C) was > 100 µM (inactive), the GI50 (786-0) was > 100 µM (inactive) and the GI50 (MDA-MB-231) was > 100 µM (inactive). The GI50 (BT-549) was > 100 µM (inactive), the GI50 (UO-31) was > 100 µM (inactive) and the GI50 (NCI-H460) was > 100 µM (inactive). For the same compound, the GI50 (A549) was > 100 µM (inactive), the GI50 (A498) was > 100 µM (inactive) and the GI50 (NCI-H226) was > 100 µM (inactive). For the same compound, the GI50 (MDA-MB-435) was > 100 µM (inactive), the GI50 (HT-29) was > 100 µM (inactive) and the GI50 (SK-OV-3) was > 100 µM (inactive). The GI50 (U-251) was > 100 µM (inactive), the GI50 (UACC-257) was > 100 µM (inactive) and the GI50 (SNB-75) was > 100 µM (inactive). For the same compound, the GI50 (OVCAR-5) was > 100 µM (inactive), the GI50 (OVCAR-4) was > 100 µM (inactive) and the GI50 (RPMI-8226) was > 100 µM (inactive). The GI50 (MCF7) was > 100 µM (inactive), the GI50 (CAKI-1) was > 100 µM (inactive) and the GI50 (LOX IMVI) was > 100 µM (inactive). For the same compound, the GI50 (SR) was > 100 µM (inactive), the GI50 (CCRF-CEM) was > 100 µM (inactive) and the GI50 (UACC-62) was > 100 µM (inactive). The GI50 (SK-MEL-5) was > 100 µM (inactive), the GI50 (HCC 2998) was > 100 µM (inactive) and the GI50 (COLO 205) was > 100 µM (inactive). For the same compound, the GI50 (SF-295) was > 100 µM (inactive).
For `CCCCC/C=C1/CC(CO)(COC(=O)CC(C(C)C)C(C)C)OC1=O` (stereo not given), the GI50 (EKVX) was 14.2 µM (inactive), the GI50 (MOLT-4) was 5.42 µM (inactive) and the GI50 (SF-268) was 16.4 µM (inactive). For the same compound, the GI50 (ACHN) was 11.4 µM (inactive), the GI50 (Hs-578T) was 2.28 µM (inactive) and the GI50 (HOP-92) was 7.35 µM (inactive). The GI50 (KM12) was 16.9 µM (inactive), the GI50 (RXF 393) was 16.3 µM (inactive) and the GI50 (DU-145) was 13.4 µM (inactive). The GI50 (SK-MEL-2) was 13.3 µM (inactive), the GI50 (OVCAR-3) was 17.7 µM (inactive) and the GI50 (MDA-N) was 3.67 µM (inactive). The GI50 (SNB-19) was 7.62 µM (inactive), the GI50 (SW-620) was 18.3 µM (inactive) and the GI50 (M14) was 14.1 µM (inactive). For the same compound, the GI50 (HCT-116) was 14.8 µM (inactive), the GI50 (HOP-62) was 7.74 µM (inactive) and the GI50 (T47D) was 17.5 µM (inactive). The GI50 (OVCAR-8) was 17.2 µM (inactive), the GI50 (SK-MEL-28) was 13 µM (inactive) and the GI50 (NCI/ADR-RES) was 17.9 µM (inactive). For the same compound, the GI50 (NCI-H522) was 16.4 µM (inactive), the GI50 (Malme-3M) was 3.27 µM (inactive) and the GI50 (TK-10) was 11.8 µM (inactive). The GI50 (PC-3) was 10.1 µM (inactive), the GI50 (HCT-15) was 18.7 µM and the GI50 (IGROV-1) was 17.8 µM (inactive). The GI50 (K562) was 5.75 µM (inactive), the GI50 (SN12C) was 12.4 µM (inactive) and the GI50 (786-0) was 8.53 µM (inactive). For the same compound, the GI50 (MDA-MB-231) was 15.6 µM (inactive), the GI50 (BT-549) was 14.8 µM (inactive) and the GI50 (UO-31) was 11.9 µM (inactive). For the same compound, the GI50 (NCI-H460) was 13.2 µM (inactive), the GI50 (A549) was 11.1 µM (inactive) and the GI50 (A498) was 13 µM (inactive). For the same compound, the GI50 (NCI-H226) was 12.1 µM (inactive), the GI50 (MDA-MB-435) was 6.27 µM (inactive) and the GI50 (HT-29) was 19.5 µM (inactive). The GI50 (SK-OV-3) was 18.9 µM (inactive), the GI50 (U-251) was 14.1 µM (inactive) and the GI50 (UACC-257) was 21.4 µM (inactive). For the same compound, the GI50 (SNB-75) was 10.3 µM (inactive), the GI50 (OVCAR-5) was 15.4 µM (inactive) and the GI50 (OVCAR-4) was 26.5 µM (inactive). For the same compound, the GI50 (MCF7) was 17.1 µM (inactive), the GI50 (CAKI-1) was 10.7 µM (inactive) and the GI50 (SR) was 16.6 µM (inactive). The GI50 (CCRF-CEM) was 16 µM (inactive), the GI50 (UACC-62) was 13.7 µM (inactive) and the GI50 (SK-MEL-5) was 9.95 µM (inactive). For the same compound, the GI50 (HCC 2998) was 16.7 µM (inactive), the GI50 (COLO 205) was 3.24 µM (inactive) and the GI50 (NCI-H23) was 16 µM (inactive). For the same compound, the GI50 (SF-295) was 5.73 µM (inactive).
